Measurements taken from patent US10722519B2, “Aerosol fluoroquinolone formulations for improved pharmacokinetics” (priority 2008, dated 2020).
Where two headings read alike, the source gives them in different places.

Tests used:
[1] = clinical
Method: This analysis compares the appearance and elimination of drug following aerosol and intravenous doses to determine the amount of drug remaining in the lung (absorption compartment) over time. To estimate concentrations of drug in lung, amounts were divided by estimates of the epithelial lung fluid (ELF) volume (25 ml) for each subject. Non-compartmental pharmacokinetic analysis was subsequently applied to these projected concentrations of drug in the lung to determine AUCs.

[2] = test system: P. aeruginosa ATCC 27853; experiment: Acute mouse lung infection model; details: mice, 2 doses over 24 h
Method: Aerosol Administration of antibiotics: Antibiotics were aerosolized using a microspray aerosol device (MicroSprayer Model IA-C, PennCentury, Philadelphia, Pa.) attached to a FMJ-250 High-Pressure Syringe (PennCentury, Philadelphia, Pa.). […] For administration, each mouse was anesthetized (5% isoflurane in oxygen running at 4 L/min) and positioned securely at a 45-50° angle by the upper teeth, the microspray aerosol tip was inserted to the bifurcation and a 50 μl volume was administered.
The bacterial suspensions were adjusted to approximately 1-6×10^5 CFU/ml by correlation of the absorbance at 600 nm with predetermined plate counts. […] On day 4, mice were infected by intratracheal (IT) instillation of 0.05 ml of inoculum using a curved oral gavage tip attached to a 1 ml syringe. […] Antibiotics were aerosolized using a microspray aerosol device. All infections and aerosol treatments were performed under isoflurane anesthesia (5% isoflurane in oxygen running at 4 L/min). An untreated group of mice (n=8) was sacrificed prior to the initiation of treatment to determine baseline bacterial counts. […] The lungs were removed aseptically and homogenized (Pro200 homogenizer, Pro Scientific, Monroe, Conn.) in 1 ml of sterile saline. Serial 10-fold dilutions of the homogenized lung were plated on Mueller-hinton agar (MHA), and colonies counted.
In addition, due to the need for anesthesia for treatment, the maximum number of daily doses was limited to two.

[3] = rat, 10 mg/kg
[4] = Sprague-Dawley, rat, in vivo, 10 mg/kg
[5] = in vivo; details: Sprague-Dawley, rat, 10 mg/kg
[6] = in vivo; details: Sprague-Dawley, rat, 10 mg/kg; remark: listed apart in the source
[7] = test system: P. aeruginosa; details: simulated ELF
[8] = serum, 5 minute IV infusion 50 mg, single healthy volunteer

C[C@H]1COc2c(N3CCN(C)CC3)c(F)cc3c(=O)c(C(=O)O)cn1c23 [Levofloxacin, levofloxacin]
Vd ([1]; human, in vivo, iv): 135 L
clearance ([1]; human, in vivo, iv): 266 mL/min
A [1, 8]: 2.05 mg/L
B [1, 8]: 0.30 mg/L
V2 [1, 8]: 114.03 L
reductions in lung bacterial counts ([2]; systemic (IP) 32 mg/kg): 0.65 log CFU
reductions in lung bacterial counts ([2]; systemic (IP) 62.5 mg/kg): 2.7 log CFU
Plasma MAT ([3]; Sprague-Dawley, in vivo): 0.01 h
Plasma CL/F ([3]; IV, mean (+/- SD)): 2.81 (±0.54) L/hr/kg
F, % from Lung vs IV [4]: 97%
CL/F ([5]; inhaled or intranasal): 47.2 mL/min/kg
Cmax ([5]; inhaled or intranasal): 6010 ng/mL
MRT ([5]; inhaled or intranasal): 42.6 min
bioavailability ([5]; inhaled or intranasal): 97.4%
half-life ([5]; inhaled or intranasal): 31.2 min
Cmax ([5]; iv): 5540 ng/mL
MRT ([5]; iv): 42 min
half-life ([5]; iv): 29.4 min
MRT ([6]; inhaled or intranasal): 42 min
half-life ([6]; inhaled or intranasal): 30 min
MRT ([6]; iv): 42 min
half-life ([6]; iv): 30 min
24 h AUC ([7]; 20 mg BID): 700 mg·h/L
Cmax ([7]; 20 mg BID): 500 mg/L
24 h AUC ([7]; 40 mg BID): 1,400 h · mg/L
Cmax ([7]; 40 mg BID): 1,000 mg/L
24 h AUC ([7]; 80 mg BID): 2,800 h · mg/L
Cmax ([7]; 80 mg BID): 2,000 mg/L
24 h AUC ([7]; 120 mg BID): 4,200 h · mg/L
Cmax ([7]; 120 mg BID): 3,000 mg/L
